Results published in the supplement of paper PMC10307832.

Tests used:
Assay in all cases: relative viability (nuclei count vs DMSO), 5 days (fraction); higher = more cells survive
[1] = compound: C1CNCCC1C2=CC(=NN2)C3=CC=NC=C3 + Nc1ncn([C@H]2C[C@H](O)[C@@H](CO)O2)c(=O)n1 [Decitabine] (partner 2 µM)
Procedure, shortened: (§1)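 Lung cancer cell lines, seeded in 1536-well plates, were treated the following day by pin tool with a single drug or with five library-drug doses (not always all listed) in √10 steps on top of a fixed anchor-drug dose. Cells were fixed and nuclei stained in one step after 5 days, and nuclei were counted. Relative viability is the nuclei count for treated wells divided by that for vehicle wells, reported as medians of duplicate plates.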

[2] = compound: C1CNCCC1C2=CC(=NN2)C3=CC=NC=C3 + COc1cccc2cc(-c3nc([C@H]4CC[C@H](C(=O)O)CC4)n4ncnc(N)c34)[nH]c12 [OSI-027] (partner 0.5 µM)
Procedure, shortened: as §1

[3] = compound: C[C@@H](N)c1ccc(C(=O)Nc2ccnc3[nH]ccc23)cc1 + CC1(C)CCC(c2ccc(Cl)cc2)=C(CN2CCN(c3ccc(C(=O)NS(=O)(=O)c4ccc(N[C@H](CCN5CCOCC5)CSc5ccccc5)c(S(=O)(=O)C(F)(F)F)c4)cc3)CC2)C1 [Navitoclax] (partner 0.5 µM)
Procedure, shortened: as §1

[4] = compound: C[C@@H](N)c1ccc(C(=O)Nc2ccnc3[nH]ccc23)cc1 + NC(=O)Nc1cc(-c2cccc(F)c2)sc1C(=O)N[C@H]1CCCNC1 [AZD7762] (partner 0.2 µM)
Procedure, shortened: as §1

Cell Line	relative viability ([1]; first compound 0.08 µM)	relative viability ([1]; first compound 0.8 µM)	relative viability ([1]; first compound 2.53 µM)	relative viability ([1]; first compound 8 µM)	relative viability ([2]; first compound 0.08 µM)	relative viability ([2]; first compound 0.8 µM)	relative viability ([2]; first compound 2.53 µM)	relative viability ([2]; first compound 8 µM)	relative viability ([3]; first compound 0.04 µM)	relative viability ([3]; first compound 0.1265 µM)	relative viability ([3]; first compound 0.4 µM)	relative viability ([3]; first compound 1.265 µM)	relative viability ([3]; first compound 4 µM)	relative viability ([4]; first compound 0.04 µM)	relative viability ([4]; first compound 0.1265 µM)	relative viability ([4]; first compound 0.4 µM)	relative viability ([4]; first compound 1.265 µM)	relative viability ([4]; first compound 4 µM)
PC-3 [JPC-3]	0.881	0.77	0.963	0.895	0.827	0.776	0.835	0.705	0.833	0.866	0.907	0.897	0.798	1.09	0.87	0.925	1.05	0.912
EBC-1	–	–	–	–	–	–	–	–	0.414	0.406	0.379	0.377	0.347	–	–	–	–	–
HCC-15	0.652	0.793	0.587	0.621	0.677	0.682	0.694	0.693	0.712	0.689	0.738	–	0.645	1.19	1.23	1.4	1.18	1.28
NCI-H1563	–	–	–	–	0.74	0.771	0.749	0.769	–	–	–	–	–	–	–	–	–	–
COR-L 105	0.568	0.729	0.687	0.772	0.694	0.678	0.925	0.664	0.795	0.74	0.783	0.769	0.519	–	–	–	–	–
NCI-H520	0.445	0.519	0.518	0.498	0.247	0.2	0.236	0.311	1.03	1.01	1.05	1.14	1.14	–	–	–	–	–
LU99A	0.857	0.982	0.919	0.842	0.292	0.291	0.331	0.304	0.834	0.851	0.967	0.839	0.798	–	0.354	0.467	0.511	0.771
NCI-H1666	0.697	0.747	0.762	0.728	0.871	0.967	0.794	0.878	1.05	1.21	1.09	1.19	1.17	0.824	0.953	1.13	1.12	0.98
NCI-H2170	0.442	0.446	0.487	0.529	0.611	0.697	0.776	0.686	0.682	0.564	0.57	0.61	0.479	0.972	0.935	1.05	0.827	0.832
NCI-H522	0.619	0.646	0.552	0.789	0.731	0.813	0.693	0.709	–	–	–	–	–	0.833	0.759	0.979	0.971	0.813
LCLC-97TM1	0.232	0.283	0.214	0.262	0.57	0.508	0.519	0.531	0.405	0.507	0.44	0.786	0.836	0.302	0.234	0.425	0.314	0.639
NCI-H1299	–	–	–	–	–	–	–	–	1.06	0.988	0.983	0.973	0.932	–	–	–	–	–
